Experimental data reported in patent US10894036B2, “Use of marizomib for the treatment of central nervous system (CNS) cancers” (Celgene International II Sàrl, priority 2016, dated 2021).

Test: Phase 1/2 MRZ + BEV and MRZ monotherapy in recurrent G4 MG: adverse events, DLT
Settings: for Ataxia: Treatment Related Grade ≥3 AE, # patients / Confusional State: Treatment Related Grade ≥3 AE, # patients / Delusion: Treatment Related Grade ≥3 AE, # patients / Dyspnea: Treatment Related Grade ≥3 AE, # patients / Embolism: Treatment Related Grade ≥3 AE, # patients / Fall: Treatment Related Grade ≥3 AE, # patients / Fatigue: Treatment Related Grade ≥3 AE, # patients / Hallucination: Treatment Related Grade ≥3 AE, # patients / Headache: Treatment Related Grade ≥3 AE, # patients / Hypertension: Treatment Related Grade ≥3 AE, # patients / Hyponatremia: Treatment Related Grade ≥3 AE, # patients / Insomnia: Treatment Related Grade ≥3 AE, # patients / Intracranial Hemorrhage: Treatment Related Grade ≥3 AE, # patients / Optic Nerve Disorder: Treatment Related Grade ≥3 AE, # patients / Proteinuria: Treatment Related Grade ≥3 AE, # patients: attributed to labelled agent
[1] = MRZ 0.7 mg/m^2 + BEV, Cohort 2, N = 3
[2] = MRZ 0.7 mg/m^2 Cohort 2 (N = 3)
[3] = MRZ 0.8 mg/m^2 + BEV N = 27, MRZ 0.8 mg/m^2 monotherapy N = 30
[4] = MRZ 0.8 mg/m^2 + BEV, Cohorts 3 & 4, N = 27
[5] = MRZ 0.8 mg/m^2 + BEV, N = 27, related to the labelled drug
[6] = MRZ 0.8 mg/m^2 Cohorts 3 & 4 (N = 27)
[7] = MRZ 0.8 mg/m^2 monotherapy, N = 30

Description: The clinical trial was a Phase 1, dose-escalation (3+3 design) followed by dose-expansion at recommended Phase 2 Dose (RP2D).
The drugs were infused on 28-Day Cycles. Tumor response is assessed every other cycle by RANO criteria.
The safety data will be presented in individual listings and summary tables, including frequency tables for adverse events and frequency and shift tables for laboratory variables. The safety population will be all subjects who received at least one dose of either study drug in Phase 1 or MRZ in Phase 2.

C[C@@]12OC(=O)[C@]1([C@@H](O)[C@@H]1C=CCCC1)NC(=O)[C@@H]2CCCl [marizomib]
Confusional State, Treatment Related Grade ≥3 AE, patients [1]: 0
Delusion, Treatment Related Grade ≥3 AE, patients [1]: 0
Dyspnea, Treatment Related Grade ≥3 AE, patients [1]: 0
Embolism, Treatment Related Grade ≥3 AE, patients [1]: 0
Fall, Treatment Related Grade ≥3 AE, patients [1]: 0
Fatigue, Treatment Related Grade ≥3 AE, patients [1]: 0
Hallucination, Treatment Related Grade ≥3 AE, patients [1]: 0
Headache, Treatment Related Grade ≥3 AE, patients [1]: 0
Hypertension, Treatment Related Grade ≥3 AE, patients [1]: 0
Hyponatremia, Treatment Related Grade ≥3 AE, patients [1]: 0
Insomnia, Treatment Related Grade ≥3 AE, patients [1]: 0
Intracranial Hemorrhage, Treatment Related Grade ≥3 AE, patients [1]: 0
Optic Nerve Disorder, Treatment Related Grade ≥3 AE, patients [1]: 0
Proteinuria, Treatment Related Grade ≥3 AE, patients [1]: 0
Ataxia, Treatment Related Grade ≥3 AE, patients (MRZ 0.7 mg/m^2 + BEV, Cohort 2, N = 3, related to the labelled drug): 0
Ataxia: Treatment Related Grade ≥3 AE, # patients [2]: 0
Confusional State: Treatment Related Grade ≥3 AE, # patients [2]: 0
Delusion: Treatment Related Grade ≥3 AE, # patients [2]: 0
Dyspnea: Treatment Related Grade ≥3 AE, # patients [2]: 0
Embolism: Treatment Related Grade ≥3 AE, # patients [2]: 0
Fall: Treatment Related Grade ≥3 AE, # patients [2]: 0
Fatigue: Treatment Related Grade ≥3 AE, # patients [2]: 0
Hallucination: Treatment Related Grade ≥3 AE, # patients [2]: 0
Headache: Treatment Related Grade ≥3 AE, # patients [2]: 0
Hypertension: Treatment Related Grade ≥3 AE, # patients [2]: 0
Hyponatremia: Treatment Related Grade ≥3 AE, # patients [2]: 0
Insomnia: Treatment Related Grade ≥3 AE, # patients [2]: 0
Intracranial Hemorrhage: Treatment Related Grade ≥3 AE, # patients [2]: 0
Optic Nerve Disorder: Treatment Related Grade ≥3 AE, # patients [2]: 0
Proteinuria: Treatment Related Grade ≥3 AE, # patients [2]: 0
Fatigue, treatment-related AE, patients (MRZ 0.8 mg/m^2 + BEV Cohorts 3 & 4, N = 27, related to the labelled drug (MRZ + BEV = related to both)): 19 (70.4%)
Patients with at Least One TEAE (MRZ 0.8 mg/m^2 + BEV Cohorts 3 & 4 N = 27, MRZ 0.8 mg/m^2 monotherapy N = 30): 29 (96.7%) ^[1]
Anaemia, adverse event, patients [3]: 6 (20.0%)
Ataxia, adverse event, patients [3]: 6 (20.0%)
Confusional state, adverse event, patients [3]: 7 (23.3%)
Constipation, adverse event, patients [3]: 9 (30.0%)
Diarrhoea, adverse event, patients [3]: 7 (23.3%)
Dizziness, adverse event, patients [3]: 5 (16.7%)
Dysarthria, adverse event, patients [3]: 5 (16.7%)
Dysphonia, adverse event, patients [3]: 1 (3.3%)
Epistaxis, adverse event, patients [3]: 2 (6.7%)
Fall, adverse event, patients [3]: 4 (13.3%)
Fatigue, adverse event, patients [3]: 19 (63.3%)
Hallucination, adverse event, patients [3]: 12 (40.0%)
Headache, adverse event, patients [3]: 12 (40.0%)
Hyperglycaemia, adverse event, patients [3]: 8 (27.6%)
Hypertension, adverse event, patients [3]: 4 (13.3%)
Hypokalemia, adverse event, patients [3]: 8 (27.6%)
Infusion site pain, adverse event, patients [3]: 3 (10.0%)
Insomnia, adverse event, patients [3]: 14 (46.7%)
Nausea, adverse event, patients [3]: 11 (36.7%)
Platelet count decreased, adverse event, patients [3]: 7 (23.3%)
Vomiting, adverse event, patients [3]: 9 (30.0%)
Confusional State, Treatment Related Grade ≥3 AE, patients [4]: 0
Delusion, Treatment Related Grade ≥3 AE, patients [4]: 1
Dyspnea, Treatment Related Grade ≥3 AE, patients [4]: 1
Embolism, Treatment Related Grade ≥3 AE, patients [4]: 0
Fall, Treatment Related Grade ≥3 AE, patients [4]: 1
Fatigue, Treatment Related Grade ≥3 AE, patients [4]: 1
Hallucination, Treatment Related Grade ≥3 AE, patients [4]: 1
Headache, Treatment Related Grade ≥3 AE, patients [4]: 3
Hypertension, Treatment Related Grade ≥3 AE, patients [4]: 0
Hyponatremia, Treatment Related Grade ≥3 AE, patients [4]: 1
Insomnia, Treatment Related Grade ≥3 AE, patients [4]: 1
Intracranial Hemorrhage, Treatment Related Grade ≥3 AE, patients [4]: 0
Optic Nerve Disorder, Treatment Related Grade ≥3 AE, patients [4]: 0
Proteinuria, Treatment Related Grade ≥3 AE, patients [4]: 0
Ataxia, Treatment Related Grade ≥3 AE, patients (MRZ 0.8 mg/m^2 + BEV, Cohorts 3 & 4, N = 27, related to the labelled drug): 1
Anaemia, treatment-related AE, patients [5]: 5 (18.5%)
Ataxia, treatment-related AE, patients [5]: 7 (25.9%)
Confusional state, treatment-related AE, patients [5]: 7 (25.9%)
Constipation, treatment-related AE, patients [5]: 5 (18.5%)
Diarrhoea, treatment-related AE, patients [5]: 8 (29.6%)
Dizziness, treatment-related AE, patients [5]: 8 (29.6%)
Dysphonia, treatment-related AE, patients [5]: 1 (3.7%)
Epistaxis, treatment-related AE, patients [5]: 0 (0.0%)
Fall, treatment-related AE, patients [5]: 3 (11.1%)
Hallucination, treatment-related AE, patients [5]: 12 (44.4%)
Headache, treatment-related AE, patients [5]: 12 (44.4%)
Hypertension, treatment-related AE, patients [5]: 1 (3.7%)
Infusion site pain, treatment-related AE, patients [5]: 4 (14.8%)
Muscular weakness, treatment-related AE, patients [5]: 3 (11.1%)
Nausea, treatment-related AE, patients [5]: 17 (63.0%)
Platelet count decreased, treatment-related AE, patients [5]: 2 (7.4%)
Stomatitis, treatment-related AE, patients [5]: 3 (11.1%)
Upper-airway cough syndrome, treatment-related AE, patients [5]: 0 (0.0%)
Vomiting, treatment-related AE, patients [5]: 15 (55.6%)
Ataxia: Treatment Related Grade ≥3 AE, # patients [6]: 1
Confusional State: Treatment Related Grade ≥3 AE, # patients [6]: 0
Delusion: Treatment Related Grade ≥3 AE, # patients [6]: 1
Dyspnea: Treatment Related Grade ≥3 AE, # patients [6]: 1
Embolism: Treatment Related Grade ≥3 AE, # patients [6]: 0
Fall: Treatment Related Grade ≥3 AE, # patients [6]: 1
Fatigue: Treatment Related Grade ≥3 AE, # patients [6]: 1
Hallucination: Treatment Related Grade ≥3 AE, # patients [6]: 1
Headache: Treatment Related Grade ≥3 AE, # patients [6]: 3
Hypertension: Treatment Related Grade ≥3 AE, # patients [6]: 0
Hyponatremia: Treatment Related Grade ≥3 AE, # patients [6]: 1
Insomnia: Treatment Related Grade ≥3 AE, # patients [6]: 1
Intracranial Hemorrhage: Treatment Related Grade ≥3 AE, # patients [6]: 0
Optic Nerve Disorder: Treatment Related Grade ≥3 AE, # patients [6]: 0
Proteinuria: Treatment Related Grade ≥3 AE, # patients [6]: 0
Anaemia, MRZ related AE, patients [7]: 5 (16.7%
Ataxia, MRZ related AE, patients [7]: 5 (16.7%)
Confusional state, MRZ related AE, patients [7]: 6 (20.0%)
Constipation, MRZ related AE, patients [7]: 6 (20.0%)
Diarrhoea, MRZ related AE, patients [7]: 7 (23.3)
Dizziness, MRZ related AE, patients [7]: 3 (10.0%)
Dysphonia, MRZ related AE, patients [7]: 0
Epistaxis, MRZ related AE, patients [7]: 1 (3.3%)
Fall, MRZ related AE, patients [7]: 1 (3.3%)
Fatigue, MRZ related AE, patients [7]: 18 (60.0%)
Hallucination, MRZ related AE, patients [7]: 11 (36.7%)
Headache, MRZ related AE, patients [7]: 11 (36.7%)
Infusion site pain, MRZ related AE, patients [7]: 2 (6.7%)
Muscular weakness, MRZ related AE, patients [7]: 0
Nausea, MRZ related AE, patients [7]: 9 (30.0%)
Platelet count decreased, MRZ related AE, patients [7]: 0
Stomatitis, MRZ related AE, patients [7]: 0
Upper-airway cough syndrome, MRZ related AE, patients [7]: 0
Vomiting, MRZ related AE, patients [7]: 7 (23.3)
